Some results are limits rather than exact numbers.

Among the data in ChEMBL document CHEMBL4613308, “Screen of Unfocused Libraries Identified Compounds with Direct or Synergistic Antibacterial Activity” (ACS Med Chem Lett, 2020) are log2FC and MIC values, retold here.

One experiment relates to Escherichia coli. The experiment is described as follows: Potentiation of colistin-induced antibacterial activity against Escherichia coli CCUG assessed as fold reduction in colistin MIC in by microdilution broth method relative to colistin MIC. It is filed as functional.
On to `CCCCCCc1ccc(O)cc1OCCCCCCCCCCC(=O)NCCO`, for which the log2FC is given as 7.
Same read-out and setting: under `CCCCCCc1ccc(OCCCCCCCC(=O)NCCO)cc1O` stands 6; under `CCOC(=O)c1c(O)nc2c(C)cccc2c1O`, 3.
The same measure, in the same setting: the figure for `CCCCCc1cc(O)cc(OCCCCCCCCCCC(=O)NC(CO)CO)c1` is 6.
For `CC(C)c1ccc2c(c1)c(O)c(C(C)C)c(=O)n2CC(C)(C)C`, the log2FC is 4.
The same measure, in the same setting: the figure for `Cc1c(C(=O)N(C)CCN(C)C)nn(-c2ccc(Cl)cc2)c1-n1cccc1` is 3; for `CCCCCCC(C)(C)c1cc(O)cc(OCCCCCCCC(=O)NCCO)c1` it is 8.

In another experiment the test system is Klebsiella pneumoniae. The experiment is described as follows: Potentiation of colistin-induced antibacterial activity against Klebsiella pneumoniae ATCC 13833 assessed as fold reduction in colistin MIC by microdilution broth method relative to colistin MIC. Format: functional.
For the molecule `CCCCCCc1ccc(O)cc1OCCCCCCCCCCC(=O)NCCO`, the log2FC was found to be 6.
With `CCCCCCc1ccc(OCCCCCCCC(=O)NCCO)cc1O`, the log2FC was found to be 7.
Still for that read-out and setting: the figure for `CCOC(=O)c1c(O)nc2c(C)cccc2c1O` is 5; for `CCCCCc1cc(O)cc(OCCCCCCCCCCC(=O)NC(CO)CO)c1` it is 6; for `CC(C)c1ccc2c(c1)c(O)c(C(C)C)c(=O)n2CC(C)(C)C` it is 3.
As to `Cc1c(C(=O)N(C)CCN(C)C)nn(-c2ccc(Cl)cc2)c1-n1cccc1`, the log2FC was determined as 4.
For `CCCCCCC(C)(C)c1cc(O)cc(OCCCCCCCC(=O)NCCO)c1`, the log2FC turned out to be 7.

The subject of a further experiment is Acinetobacter baumannii. The experiment is described as follows: Antibacterial activity against Acinetobacter baumannii ATCC 17978 assessed as bacterial growth inhibition by agar diffusion assay. Format: functional. (In general: A growth-free zone around the sample is the usual read-out of agar diffusion tests.)
Broadly, the MIC is the least concentration at which growth counts as inhibited. Turning to `CCCCCCc1ccc(O)cc1OCCCCCCCCCCC(=O)NCCO`, the MIC is more than 512 µg/mL.
Still for that read-out and setting: the figure for `CCCCCCc1ccc(O)cc1OCCCCCC(=O)NCCO` is more than 512 µg/mL; for `CCCCCCc1ccc(OCCCCCCCC(=O)NCCO)cc1O` it is more than 512 µg/mL; for `CCOC(=O)c1c(O)nc2c(C)cccc2c1O` it is more than 512 µg/mL.
Same read-out and setting: under `CCCCCc1cc(O)cc(OCCCCCCCCCCC(=O)NC(CO)CO)c1` stands more than 512 µg/mL; under `CC(C)c1ccc2c(c1)c(O)c(C(C)C)c(=O)n2CC(C)(C)C`, more than 512 µg/mL.
Turning to `Cc1c(C(=O)N(C)CCN(C)C)nn(-c2ccc(Cl)cc2)c1-n1cccc1`, the minimum inhibitory concentration (MIC) was more than 512 µg/mL.
On the same count and under the same terms, under `CCCCCCC(C)(C)c1cc(O)cc(OCCCCCCCC(=O)NCCO)c1` stands more than 512 µg/mL.

The test system of a further experiment is Klebsiella pneumoniae. Put plainly: Synergistic antibacterial activity against Klebsiella pneumoniae ATCC 13833 in presence of 0.5 times MIC of colistin by microdilution broth method. Format: functional.
As for `CCCCCCc1ccc(O)cc1OCCCCCCCCCCC(=O)NCCO`, the MIC was found to be 8 µg/mL.
With `CCCCCCc1ccc(OCCCCCCCC(=O)NCCO)cc1O`, the MIC turned out to be 4 µg/mL.
With `CCOC(=O)c1c(O)nc2c(C)cccc2c1O`, the MIC came out at 16 µg/mL.
Still for that read-out and setting: under `CCCCCc1cc(O)cc(OCCCCCCCCCCC(=O)NC(CO)CO)c1` stands 8 µg/mL; under `CC(C)c1ccc2c(c1)c(O)c(C(C)C)c(=O)n2CC(C)(C)C`, 64 µg/mL.
On the same count and under the same terms, under `Cc1c(C(=O)N(C)CCN(C)C)nn(-c2ccc(Cl)cc2)c1-n1cccc1` stands 32 µg/mL; under `CCCCCCC(C)(C)c1cc(O)cc(OCCCCCCCC(=O)NCCO)c1`, 4 µg/mL.

A further experiment deals with Escherichia coli. Put plainly: Antibacterial activity against Escherichia coli CCUG assessed as bacterial growth inhibition by agar diffusion assay. It is filed as functional.
In the case of `CCCCCCc1ccc(O)cc1OCCCCCCCCCCC(=O)NCCO`, the MIC was more than 512 µg/mL.
The same measure, in the same setting: under `CCCCCCc1ccc(O)cc1OCCCCCC(=O)NCCO` stands more than 512 µg/mL.
Same read-out and setting: under `CCCCCCc1ccc(OCCCCCCCC(=O)NCCO)cc1O` stands more than 512 µg/mL.
The same measure, in the same setting: under `CCOC(=O)c1c(O)nc2c(C)cccc2c1O` stands more than 512 µg/mL.
Take `CCCCCc1cc(O)cc(OCCCCCCCCCCC(=O)NC(CO)CO)c1`: the MIC is more than 512 µg/mL.
Same read-out and setting: the figure for `CC(C)c1ccc2c(c1)c(O)c(C(C)C)c(=O)n2CC(C)(C)C` is more than 512 µg/mL.
Same read-out and setting: the figure for `Cc1c(C(=O)N(C)CCN(C)C)nn(-c2ccc(Cl)cc2)c1-n1cccc1` is more than 512 µg/mL; for `CCCCCCC(C)(C)c1cc(O)cc(OCCCCCCCC(=O)NCCO)c1` it is more than 512 µg/mL.

The next experiment relates to Acinetobacter baumannii. Put plainly: Synergistic antibacterial activity against Acinetobacter baumannii ATCC 17978 in presence of 0.5 times MIC of colistin by microdilution broth method. Format: functional. A general note: Broth dilution looks for growth in wells or tubes with falling amounts of substance.
On to `CCCCCCc1ccc(O)cc1OCCCCCCCCCCC(=O)NCCO`, for which the MIC was 16 µg/mL.
The same measure, in the same setting: under `CCCCCCc1ccc(O)cc1OCCCCCC(=O)NCCO` stands 8 µg/mL; under `CCCCCCc1ccc(OCCCCCCCC(=O)NCCO)cc1O`, 16 µg/mL; under `CCOC(=O)c1c(O)nc2c(C)cccc2c1O`, 64 µg/mL.
`CCCCCc1cc(O)cc(OCCCCCCCCCCC(=O)NC(CO)CO)c1`: the MIC was determined as 4 µg/mL.
Turning to `CC(C)c1ccc2c(c1)c(O)c(C(C)C)c(=O)n2CC(C)(C)C`, the MIC is 32 µg/mL.
Still for that read-out and setting: the figure for `Cc1c(C(=O)N(C)CCN(C)C)nn(-c2ccc(Cl)cc2)c1-n1cccc1` is 16 µg/mL; for `CCCCCCC(C)(C)c1cc(O)cc(OCCCCCCCC(=O)NCCO)c1` it is 4 µg/mL.

Another experiment concerns Escherichia coli. Put plainly: Synergistic antibacterial activity against Escherichia coli CCUG in presence of 0.5 times MIC of colistin by microdilution broth method. It is filed as functional.
With `CCCCCCc1ccc(O)cc1OCCCCCCCCCCC(=O)NCCO`, the MIC amounted to 4 µg/mL.
Consider `CCCCCCc1ccc(OCCCCCCCC(=O)NCCO)cc1O`, for which the MIC is 8 µg/mL.
In the case of `CCOC(=O)c1c(O)nc2c(C)cccc2c1O`, the MIC was found to be 64 µg/mL.
On the same count and under the same terms, the figure for `CCCCCc1cc(O)cc(OCCCCCCCCCCC(=O)NC(CO)CO)c1` is 8 µg/mL; for `CC(C)c1ccc2c(c1)c(O)c(C(C)C)c(=O)n2CC(C)(C)C` it is 32 µg/mL; for `Cc1c(C(=O)N(C)CCN(C)C)nn(-c2ccc(Cl)cc2)c1-n1cccc1` it is 64 µg/mL.
Still for that read-out and setting: the figure for `CCCCCCC(C)(C)c1cc(O)cc(OCCCCCCCC(=O)NCCO)c1` is 2 µg/mL.

The test system of a further experiment is Pseudomonas aeruginosa. Put plainly: Antibacterial activity against Pseudomonas aeruginosa ATCC 27853 assessed as bacterial growth inhibition by agar diffusion assay. Format: functional.
In the case of `CCCCCCc1ccc(O)cc1OCCCCCCCCCCC(=O)NCCO`, the MIC is more than 512 µg/mL.
On the same count and under the same terms, under `CCCCCCc1ccc(O)cc1OCCCCCC(=O)NCCO` stands more than 512 µg/mL; under `CCCCCCc1ccc(OCCCCCCCC(=O)NCCO)cc1O`, more than 512 µg/mL; under `CCOC(=O)c1c(O)nc2c(C)cccc2c1O`, more than 512 µg/mL.
With `CCCCCc1cc(O)cc(OCCCCCCCCCCC(=O)NC(CO)CO)c1`, the MIC is more than 512 µg/mL.
Still for that read-out and setting: under `CC(C)c1ccc2c(c1)c(O)c(C(C)C)c(=O)n2CC(C)(C)C` stands more than 512 µg/mL; under `Cc1c(C(=O)N(C)CCN(C)C)nn(-c2ccc(Cl)cc2)c1-n1cccc1`, more than 512 µg/mL.
Still for that read-out and setting: under `CCCCCCC(C)(C)c1cc(O)cc(OCCCCCCCC(=O)NCCO)c1` stands more than 512 µg/mL.

The next experiment deals with Klebsiella pneumoniae. The experiment is described as follows: Antibacterial activity against Klebsiella pneumoniae ATCC 13833 assessed as bacterial growth inhibition by agar diffusion assay. It is filed as functional.
As for `CCCCCCc1ccc(O)cc1OCCCCCCCCCCC(=O)NCCO`, the MIC is more than 512 µg/mL.
Consider `CCCCCCc1ccc(O)cc1OCCCCCC(=O)NCCO`, for which the MIC is more than 512 µg/mL.
The same measure, in the same setting: the figure for `CCCCCCc1ccc(OCCCCCCCC(=O)NCCO)cc1O` is more than 512 µg/mL; for `CCOC(=O)c1c(O)nc2c(C)cccc2c1O` it is more than 512 µg/mL.
The same measure, in the same setting: under `CCCCCc1cc(O)cc(OCCCCCCCCCCC(=O)NC(CO)CO)c1` stands more than 512 µg/mL; under `CC(C)c1ccc2c(c1)c(O)c(C(C)C)c(=O)n2CC(C)(C)C`, more than 512 µg/mL.
As for `Cc1c(C(=O)N(C)CCN(C)C)nn(-c2ccc(Cl)cc2)c1-n1cccc1`, the MIC was more than 512 µg/mL.
On the same count and under the same terms, under `CCCCCCC(C)(C)c1cc(O)cc(OCCCCCCCC(=O)NCCO)c1` stands more than 512 µg/mL.

The next experiment has as its system Acinetobacter baumannii. Put plainly: Potentiation of colistin-induced antibacterial activity against Acinetobacter baumannii ATCC 17978 assessed as fold reduction in colistin MIC by microdilution broth method relative to colistin MIC. It is filed as functional.
`CCCCCCc1ccc(O)cc1OCCCCCCCCCCC(=O)NCCO`: the log2FC amounted to 5.
As for `CCCCCCc1ccc(O)cc1OCCCCCC(=O)NCCO`, the log2FC is given as 6.
The same measure, in the same setting: under `CCCCCCc1ccc(OCCCCCCCC(=O)NCCO)cc1O` stands 5; under `CCOC(=O)c1c(O)nc2c(C)cccc2c1O`, 3.
The same measure, in the same setting: under `CCCCCc1cc(O)cc(OCCCCCCCCCCC(=O)NC(CO)CO)c1` stands 7; under `CC(C)c1ccc2c(c1)c(O)c(C(C)C)c(=O)n2CC(C)(C)C`, 4.
The same measure, in the same setting: under `Cc1c(C(=O)N(C)CCN(C)C)nn(-c2ccc(Cl)cc2)c1-n1cccc1` stands 5; under `CCCCCCC(C)(C)c1cc(O)cc(OCCCCCCCC(=O)NCCO)c1`, 7.
